From ChEMBL document CHEMBL3988442, “University of Dundee, Small-Polar-MMV Screening Library” (2021)

Test system: Schistosoma mansoni
Test: High throughput screening of compounds against Schistosoma mansoni motility
Assay type: functional
Parameters: dose or concentration left out as unconfirmed

SMILES	Percent Effect
CCCS(=O)(=O)Nc1ccc2c(c1)OCC(C)(C)C(=O)N2C	7.848%
COc1cccc(CNc2c(C)cnc3c2c(=O)n(C)c(=O)n3C)c1	5.662%
CCCNC(=O)Cn1nc(C(C)C)c2cnn(C(C)(C)C)c2c1=O	-27.62%
CNC(=O)CSc1cnn(CC(=O)Nc2cccc(Cl)c2C)c(=O)c1Cl	-12.29%
COc1ccc(Br)c(C(=O)NCC2CCN(S(=O)(=O)C3CC3)CC2)c1	-3.942%
O=C(NCC(O)c1cccs1)c1cccc(Cl)c1 (stereo not given)	-28.05%
O=C(NCC1(CO)CC1)c1cccc2ccccc12	-62.45%
O=C(NCC(Cc1cccc(F)c1)N1CCCC1=O)c1cnccn1 (stereo not given)	3.976%
COc1ccc(Br)c(C(=O)NCC2CCN(C(=O)c3ccoc3)CC2)c1	-63.91%
COc1ccccc1S(=O)(=O)N1CCC(Oc2cccnn2)CC1	-19.77%
Cn1cnnc1S(=O)(=O)C1CCN(S(=O)(=O)C2CC2)CC1	-25.74%
CNC(=O)CS(=O)(=O)C1CCN(S(=O)(=O)C2CC2)CC1	7.856%
CNC(=O)CS(=O)(=O)C1CCN(S(=O)(=O)c2c(F)cccc2F)CC1	-27.81%
CCOc1ccc(CN(C)C(=O)NC(C)c2nncn2C)cc1 (stereo not given)	-46.5%
Cc1cc(NC(=O)CCc2ccsc2)n(C)n1	18.83%
O=C1CN(Cc2nnc(-c3ccc(Br)o3)o2)CCN1	-20.64%
CC(C)(C)NC(=O)CNC(=O)CCc1ccccc1Br	20.34%
CS(=O)(=O)NCCNC(=O)C1(c2cccc(Cl)c2)CC1	21.58%
CN(C)CCN(Cc1ccc(Cl)cc1)C(=O)c1cc[nH]n1	46.97%
O=C(CCc1ccccc1)Nc1ncccc1OC(F)F	-1.295%
CSCCCNC(=O)Nc1cccc(-c2nccn2C)c1	-33.04%
Cn1cnc(S(=O)(=O)N2CCN(Cc3ccco3)CC2)c1Cl	-70.1%

SMILES	Percent Effect
O=C(Nc1ccnc(OC2CCOC2)c1)C1CCC1 (stereo not given)	-37.1%
CCC(C)N(C)S(=O)(=O)c1ccc(CCNC(C)=O)s1 (stereo not given)	-44.53%
CC(C)c1cnc(CNc2c(F)cccc2-n2cccn2)o1	20.62%
COCc1ccccc1NC(=O)[C@@H]1CCCN1C(=O)c1ccco1	-9.117%
O=C(c1ccc(Br)s1)N1CCN(Cc2ccc(OC(F)(F)F)cc2)CC1	31.43%
O=C(c1cc(Cl)cc(Cl)c1)N1CCN(c2nccs2)CC1	-19.81%
O=C(NCCCn1cccn1)C1(c2ccc(Br)cc2)CC1	14.19%
O=C1NCCCCC1Sc1nnc(-c2cccnc2)n1C1CC1 (stereo not given)	-73.97%
CC1(NC(=O)Cc2csc(C(C)(C)C)n2)CCS(=O)(=O)C1 (stereo not given)	-25.94%
COCC(NC(=O)c1cc[nH]n1)c1cccc(C(F)(F)F)c1 (stereo not given)	-87.52%
COCC(NC(=O)c1ccc[nH]1)c1cccc(C(F)(F)F)c1 (stereo not given)	-105.3%
O=C(NS(=O)(=O)c1cc(Cl)sc1Cl)c1cccc2c1OCCO2	-35.56%
Cc1ccc(S(=O)(=O)NC(=O)c2cccc3c2OCCO3)c(C)c1	-13.74%
Cc1cccc(C(=O)N2CCN(S(C)(=O)=O)[C@@H](C)C2)c1C	-56.44%
CC(C)(C)C(=O)NCCC(=O)NC(C)(C)c1ccc2c(c1)OCCO2	-18.95%
Cc1n[nH]c(C2CN(C(=O)CCc3ccsc3)CCO2)n1 (stereo not given)	-49.32%
c1csc(-c2nc(CN3CCCC3Cn3cncn3)co2)c1 (stereo not given)	-94.11%
CCc1nc(CN2CCCC(N(C)Cc3cnc(C)s3)C2)no1 (stereo not given)	23.33%
CCc1noc(C(C)N(C)CC(=O)Nc2cccc(C)n2)n1 (stereo not given)	0.2571%
COc1ccc(C2CCCCCN2S(=O)(=O)N(C)C)cc1 (stereo not given)	18.41%
CNC(=O)COc1ccc(CNCc2ccc(F)cc2F)cc1	-31.94%
Cc1csc(CNC(=O)Nc2cc(C(F)(F)F)c[nH]c2=O)n1	7.294%

SMILES	Percent Effect
CCCN1CCC(NC(=O)c2ccc(F)cc2I)CC1	16.82%
CNC(=O)CCNC(=O)c1cccc(Cn2nc(C)cc2C)c1	-2.451%
CN(C)S(=O)(=O)N1CCC(Oc2ccc(C#N)cc2)CC1	21.82%
COc1ccc(CNC(=O)NCC2CCOC2)c(C(F)(F)F)c1 (stereo not given)	-32.81%
Cc1nc(C)n(CC2CN(CC(=O)Nc3nccs3)CCO2)n1 (stereo not given)	-3.889%
O=C(CCc1cscn1)NS(=O)(=O)c1ccc2ccccc2c1	22.96%
Cc1cc(F)ccc1CNCCn1cccn1	-28.39%
Cc1nc(CN2CCC(N(C)Cc3noc(C(C)C)n3)C2)cs1 (stereo not given)	-19.62%
Cc1nn(C)c(C)c1C1COCCN1C(=O)Cc1cccc(F)c1 (stereo not given)	-11.98%
Cc1ccc(NC(C)C(=O)NCc2cccs2)cc1C (stereo not given)	-60.11%
COc1ccc(C2CCCN2C(=O)NCCNc2ncccn2)cc1 (stereo not given)	-55.34%
CC(C)S(=O)(=O)NCC1CCCN(C(=O)c2cccnc2)C1 (stereo not given)	-61.29%
O=C(NCC1CC1)C1CSCN1S(=O)(=O)c1cccc(F)c1 (stereo not given)	-77.75%
COc1ccccc1CC(=O)NCCCN1CCCC1C(=O)N(C)C (stereo not given)	-6.29%
CSCC(CCO)NC(=O)Nc1cccc(Br)c1 (stereo not given)	-21.75%
Cc1ccc(C(=O)O)cc1S(=O)(=O)Nc1nn(-c2ccccc2)cc1C	-27.39%
Cc1n[nH]c(C)c1C1CCCN1C(=O)NCC(=O)NC(C)(C)C (stereo not given)	-7.96%
COc1ccc(C2CCCN2C(=O)CCNc2ncccn2)cc1 (stereo not given)	-36.49%
Cc1cccc(CCC(=O)N2CCOCC2c2c(C)n[nH]c2C)c1 (stereo not given)	-56.4%
Cc1n[nH]c(C)c1C1CCCN1C(=O)NCCSC(C)(C)C (stereo not given)	-28.72%
CNC(=O)C(C)(C)NC(=O)c1cc(OCC2CCC2)cc(C(=O)OC)c1	-68.4%
NC(=O)c1cccc(CC2CCN(C(=O)CO)C2)c1 (stereo not given)	-14.33%

SMILES	Percent Effect
COCCN1CCC(CN(CC2CCCO2)C(=O)COC)CC1 (stereo not given)	27.45%
COCCN1CCN(C(=O)c2cc(C(C)C)on2)[C@H]2CS(=O)(=O)C[C@H]21	3.129%
CCOCCOc1ccccc1C(=O)N1CCCC(c2ncc[nH]2)C1 (stereo not given)	-53.5%
Oc1cc(CCC2CCCCN2)cc(-c2ccncc2)c1 (stereo not given)	6.025%
CN(Cc1ncc[nH]1)S(=O)(=O)c1cccc(C(=O)N2CCOCC2)c1	-64.53%
Cc1ccc(-c2cn[nH]c2C2CCCN(c3nccc(N)n3)C2)cc1 (stereo not given)	94.46%
CN(Cc1ccccc1)CC1(O)CCCN(CC(C)(C)C)C1=O (stereo not given)	9.775%
c1ccc(-c2noc3c2CN(CC2CC2)CC3)cc1	-116.8%
CCn1c(N)nc2cc(C(=O)NCCc3ccccc3C)cnc21	-46.13%
Cc1nc[nH]c1CN1C[C@@H]2CC[C@H](C1)N(C(=O)CCNS(C)(=O)=O)C2	1.774%
O=C(Nc1ccc(F)cc1)N1C[C@H]2CC[C@@H]1CN(Cc1cccnc1)C2	-3.001%
CCc1nnc(CN(C)c2nc(C(C)C)nc3c2cnn3C)o1	-37.68%
O=C(CCc1ccccc1)C1CCCN(C(=O)c2ncc(F)cc2F)C1 (stereo not given)	-32.14%
CN(C)C(=O)N1CCN(C(=O)C(c2ccccc2F)N(C)C)CC1 (stereo not given)	-1.181%
CS(=O)(=O)N1CCC(Oc2ccc(C(=O)N3CCSCC3)cc2Cl)CC1	-0.7709%
CC(C)=CCN1C(=O)[C@H]2CC[C@@H]1CN(Cc1cccnc1N)C2	-5.593%
CCc1ncc2c(n1)CN(C(=O)COC)C2	-20.5%
Cc1ccsc1[C@@H]1CCN(C(=O)CCC(=O)N2CCCCCC2)C[C@H]1O	-14.8%
NC(=O)c1cccc(CC2CCN(C(=O)CCCN3CCOCC3)C2)c1 (stereo not given)	-44.07%
O=C(CCc1cc2n(n1)CCCN(C(=O)c1ccccn1)C2)NC1CC1	-25.84%
Cc1nc(CN2CCCC2c2nc(C(C)C)no2)cs1 (stereo not given)	-46.84%
CC(C)C1CN(c2ncccn2)CCC(=O)N1Cc1ccc(F)cc1 (stereo not given)	-32.66%

SMILES	Percent Effect
CC(=O)Nc1cccc(C(=O)Nc2cnc3n2CCCC3)c1	-24.57%
Cc1ccc2cc(C3(O)CCN(C(=O)CN4CCCC4)CC3)ccc2n1	5.836%
CC(C)C(=O)N1CCN(C(=O)c2cc(C(C)C)on2)[C@H]2CS(=O)(=O)C[C@H]21	-39.14%
CSCCC(=O)N1CCC(Oc2cc(C)ccc2F)(C(=O)O)CC1	12.24%
CCn1c(N)nc2cc(C(=O)NCc3ccccc3Cl)cnc21	-40.17%
COc1ccccc1OCc1cc(C(=O)N2CC=CC2C(C)C)n[nH]1 (stereo not given)	-26.69%
Cc1occc1C(=O)N1CCC2(CCCN(CC3CCC3)C2=O)C1 (stereo not given)	-40.66%
Cc1ccc(S(=O)(=O)NC2CC2)cc1C	-24.32%
COCCNS(=O)(=O)c1ccc2c(c1)CCN(C(=O)c1cncn1C)C2	4.246%
Cc1cc(C(=O)N2CCC(c3nccn3Cc3ccncc3)CC2)no1	-48.3%
CN(CCN1CCCCC1)C(=O)c1cc(CN2CCOCC2)on1	-21.55%
COCCn1ccnc1C1CCCN(C(=O)CSCC2CC2)C1 (stereo not given)	-4.392%
CN(CCc1ccccc1)c1cnn(CC(=O)N2CCSCC2)c(=O)c1	-28.25%
COc1cccc(N2CCN(Cc3ccc(NC(C)=O)cc3)CC2=O)c1	-11.44%
O=C(c1cc(=O)[nH]c(=O)[nH]1)N1CCCCC1c1nc2cc(F)ccc2[nH]1 (stereo not given)	-2.098%
NC(=O)NCC(=O)N1C[C@H]2CC[C@@H]1CN(Cc1ccccc1)C2	-13.56%
Cc1cc(CC(=O)N2CCCC2c2nc(C(C)C)no2)on1 (stereo not given)	-26.98%
O=C(CSCC1CC1)N1CCCC(c2nccn2Cc2ccncc2)C1 (stereo not given)	9.639%
Cc1nn(C)c(N(C)C)c1CNCC(O)COc1ccccc1.Cl (stereo not given)	-91.65%
Cl.NC(=O)COc1ccc(CNCc2ccc(F)cc2F)cc1	-10.97%
Cl.Cl.OC(CN1CCN(Cc2ccc(F)cc2)CC1)C1CC1 (stereo not given)	-83.95%
Cl.Cl.OC(CN1CCN(Cc2ccc(F)c(F)c2)CC1)C1CC1 (stereo not given)	-57.04%
